Laboratory results: publication PMC3705364, “Biochemical and Electrophysiological Characterization of Two Sea Anemone Type 1 Potassium Toxins from a Geographically Distant Population of Bunodosoma caissarum” (Marine Drugs, 2013)
Where a SMILES comes first, the peptide text is derived from it. Bridges are numbered along the chain shown (N, C = ends).

System: KV1.1–KV1.6, KV2.1, KV3.1, KV4.2, KV4.3, hERG and Shaker IR
Assay: Electrophysiological screening on 12 cloned KV channel isoforms in X. laevis oocytes
Assay type: cell-based, rat, human, insect
Method: The pharmacological profile of BcsTx-1 and -2 were determined on a wide range of twelve KV channels (rKV1.1, rKV1.2, hKV1.3, rKV1.4, rKV1.5, rKV1.6, rKV2.1, rKV3.1, rKV4.2, rKV4.3, hERG and the insect channel Shaker IR; r: rat and h: human). Channels were expressed in X. laevis oocytes, and their currents were recorded by using two-electrode voltage-clamp technique. BcsTx1 (0.5 µM) inhibited rKv1.1, rKv1.2, rKv1.3, rKv1.6 and Shaker IR channels with 44% ± 2%, 100%, 100%, 88% ± 3% and 64% ± 4%, respectively (Figure 6). […] Type 1 toxins, such as BgK and ShK, have been extensively characterized. […] Some of the other type 1 toxins were indirectly assayed by competitive inhibition of the binding of ^125I-dendrotoxins, allowing the conclusion that they will show activity on KV1.1, KV1.2 and/or KV1.6, since dendrotoxins only block the current of these KV channels. […] Thus, it is worth mentioning that our work represents the first electrophysiological characterization of type 1 sea anemone toxin activity on cloned Shaker IR insect channel.
Stage V–VI of X. laevis oocytes were harvested by partial ovariectomy under anesthesia (3-aminobenzoic acid ethyl ester methanesulfonate salt, 0.5 g/L from Sigma-Aldrich Co., Saint Louis, MO, USA). The oocytes were defolliculated for 2 h by treatment with 2 mg/mL collagenase (Sigma-Aldrich Co., Saint Louis, MO, USA) in Ca^2+ free ND96 solution (in mM: 96 NaCl; 2 KCl; 1 MgCl2; 5 HEPES adjusted pH 7.4). For the expression of KV channels (KV1.1–KV1.6, KV2.1, KV3.1, KV4.2, KV4.3, hERG and the insect channel Shaker IR), the linearized plasmids were transcribed using the T7 or SP6 mMessage-mMachine transcription kit (Ambion, Austin, TX, USA). Oocytes were injected with 50 nL of cRNA at a concentration of 1 ng/nL using a microinjector (Drummond Scientific, Broomall, PA, USA). The oocytes were maintained in a ND96 solution (in mM: 96 NaCl, 2 KCl, 1.8 CaCl2, 2 MgCl2 and 5 HEPES; adjusted pH 7.4), supplemented with 50 µg/mL gentamicin sulfate.
Two-electrode voltage-clamp recordings were performed at room temperature (18–22 °C) using a Geneclamp 500 amplifier (Molecular Devices, Sunnyvale, CA, USA) controlled by a pClamp data acquisition system (Axon Instruments, Union City, CA, USA). Whole-cell currents from oocytes were recorded from 1 to 3 days after injection. Bath solution was the same ND96 solution described above. Voltage and current electrodes were filled with 3 M KCl. Resistances of both electrodes were kept between 0.8 and 1.0 ΩM. The elicited currents were filtered at 500 Hz using a four-pole lowpass Bessel filter. Leak subtraction was performed using a −P/4 protocol. KV1.1–KV1.6 and Shaker IR currents were evoked by 500 ms depolarizations to 0 mV, followed by a 500 ms pulse to −50 mV, from a holding potential of −90 mV. Current traces of hERG channels were elicited by applying a +40 mV prepulse for 2 s, followed by a step to −120 mV for 2 s. KV3.1, KV 4.2 and KV4.3 currents were elicited by 500 ms pulses to +20 mV from a holding potential of −90 mV. To assess the concentration-response relationships, data were fitted with the Hill equation: y = 100/[1 + (EC50/[toxin])h] (1) where y is the amplitude of the toxin-induced effect, EC50 is the toxin concentration at half maximal efficacy, [toxin] is the toxin concentration and h is the Hill coefficient. In order to investigate the current-voltage relationship, current traces were evoked by 10 mV depolarization steps from a holding potential of −90 mV. The activation curves were fitted with a Boltzmann relationship of the form: 1/(1 + e^[−(V − V^1/2)/^S^]) (2) where V1/2 is the voltage for half-maximal activation and s is the slope factor. The activation kinetics were obtained by mono-exponential fits to the raw current traces.

In the case of CC(C)C[C@@H]1NC(=O)[C@H](CCCCN)NC(=O)[C@H](C)NC(=O)[C@H](Cc2c[nH]cn2)NC(=O)[C@H](CCC(N)=O)NC(=O)[C@@H]2CSSC[C@@H]3NC(=O)[C@H](CC(N)=O)NC(=O)[C@H](C)NC(=O)[C@H](CCCNC(=N)N)NC(=O)[C@H](Cc4ccc(O)cc4)NC(=O)[C@H](CCCCN)NC(=O)[C@H](CCC(N)=O)NC(=O)[C@H](CO)NC(=O)[C@H](CC(N)=O)NC(=O)[C@H](CCCCN)NC(=O)[C@H](CSSC[C@H](NC(=O)[C@H]([C@@H](C)O)NC(=O)[C@H](CCCCN)NC(=O)[C@H](C)NC3=O)C(=O)NCC(=O)N3CCC[C@H]3C(=O)N[C@H](C(=O)O)CSSC[C@H](NC(=O)[C@H](C)N)C(=O)N[C@@H](CCCCN)C(=O)N[C@@H](CC(=O)O)C(=O)NCC(=O)N[C@@H](Cc3ccccc3)C(=O)N3CCC[C@H]3C(=O)N[C@@H]([C@@H](C)O)C(=O)N[C@@H](C)C(=O)N[C@@H]([C@@H](C)O)C(=O)N2)NC(=O)[C@H](CC(N)=O)NC(=O)CNC(=O)[C@H](C(C)C)NC1=O [BcsTx2] (H-ACKDGFPTATCQHAKLVGNCKNSQKYRANCAKTCGPC-OH; disulfide 2-37, 11-30, 20-34; C-terminus assumed), the “selectivity among KV channels (in words)” value (3 µM, 12 KV isoforms) is reported as “selectively blocks Shaker channels subfamily”, the “potency class on KV channels (in words)” value (summary of IC50 values, compared with BgK and type 2 toxins) is reported as “within the nanomolar range” and the “affinity/potency order among KV channels (in words)” value (summary of the electrophysiological characterization) is reported as “potently blocked rKv1.6 over hKv1.3, rKv1.1, Shaker IR and rKv1.2”.
